These are literature values, as cited in patent US10448644B2, “Fungicide composition for natural fibers and natural fiber components” (Lisa Draexlmaier Gmbh, priority 2014, dated 2019).

The conditions of data set [1]: animal experiments.
For data set [2] the following is noted: according to the German Federal Institute for Health Protection and Veterinary Medicine.

For the compound `c1ccc2[nH]c(-c3cscn3)nc2c1` [thiabendazole], the carcinogenic effect result in data set [1] is given as “found to have a carcinogenic effect”. Moreover, in data set [2], the toxicity result was “low”.
